# Assay results as given in ChEMBL document CHEMBL4421722, “Inhibitors of protein prenyltransferases” (2013).
# Species on record: Rattus norvegicus
# Assay: Inhibition of rat recombinant geranylgeranyltransferase type I expressed in Escherichia coli assessed as residual enzyme activity for geranylgeranylation of K-Ras4B at 50 uM incubated for 30 mins in presence of [3H]GGPP by scintillation counting assay relative to control
row,SMILES,Activity
1,Cc1ccc([C@@H]2CC=C(C(=O)O)[C@H](c3ccc(F)cc3)N2S(=O)(=O)c2ccccc2C)cc1,50.9%
2,Cc1ccc(S(=O)(=O)N2[C@@H](c3ccc(Cl)cc3)C(C(=O)O)=CC[C@H]2c2cccs2)cc1,75.6%
3,COc1ccc([C@@H]2C[C@@H](SCc3ccccc3)[C@H](C(=O)O)CN2S(=O)(=O)c2ccccc2C)cc1,33.9%
4,CCS[C@@H]1C[C@@H](c2cccc(OC)c2)N(S(=O)(=O)c2ccc(C)cc2)C[C@H]1C(=O)O,84.8%
5,Cc1ccc(S(=O)(=O)N2[C@@H](c3cccc(C)c3)C(C(=O)O)=CC[C@H]2c2ccc(C#N)cc2)cc1,66.7%
6,CCS[C@@H]1C[C@@H](c2ccc(C)cc2)N(S(=O)(=O)c2ccccc2C)C[C@H]1C(=O)O,83.6%
7,COc1ccc([C@@H]2C=CCCN2S(=O)(=O)c2ccc(C)cc2)cc1,99.7%
8,COc1ccc([C@@H]2CC=C(C(=O)O)[C@H](c3cccc(C)c3)N2S(=O)(=O)c2ccc(Cl)cc2)cc1,85.8%
9,COc1ccc(S[C@@H]2C[C@@H](c3ccc(OC)c(OC)c3)N(S(=O)(=O)c3ccc(C)cc3)C[C@H]2C(=O)O)cc1,101%
10,Cc1ccc(S(=O)(=O)N2C[C@@H](C(=O)O)[C@H](Sc3ccc(Cl)cc3)C[C@H]2c2ccccc2F)cc1,88.8%
11,CCCCS[C@@H]1C[C@@H](c2ccc(C)cc2)N(S(=O)(=O)c2ccccc2)C[C@H]1C(=O)O,72.6%
12,Cc1ccc(S(=O)(=O)N2[C@@H](c3ccc(F)cc3)C(C(=O)O)=CC[C@H]2c2cccc(C)c2)cc1,71.2%
13,Cc1ccc([C@@H]2C[C@@H](Sc3ccccc3)[C@H](C(=O)O)CN2S(=O)(=O)c2ccc(C)cc2)cc1,63.2%
14,CS(=O)(=O)N1[C@@H](c2cccc(F)c2)C(C(=O)O)=CC[C@H]1c1ccc(Cl)cc1,69.9%
15,COc1cccc([C@@H]2CC=C(C(=O)O)[C@H](c3ccc(C(C)(C)C)cc3)N2S(=O)(=O)c2ccc(C)cc2)c1,95.8%
16,COc1cccc([C@@H]2CC=C(C(=O)O)[C@H](c3cccc(C)c3)N2S(=O)(=O)c2ccc(C)cc2)c1,98.6%
17,CCCS[C@@H]1C[C@@H](c2ccc(C)cc2)N(S(C)(=O)=O)C[C@H]1C(=O)O,96.8%
18,CCc1ccc([C@@H]2CC=C(C(=O)O)[C@H](c3cccc(C)c3)N2S(=O)(=O)c2ccc(C)cc2)cc1,60.5%
19,Cc1ccc([C@@H]2CC=C(C(=O)O)[C@H](c3cccc(Br)c3)N2S(=O)(=O)c2ccc(C)cc2)cc1,75.6%
20,CC(=O)C1=CC[C@@H](c2ccc(Cl)cc2)N(S(=O)(=O)c2ccc(C)cc2)C1,80.8%
21,Cc1ccc(S(=O)(=O)N2[C@@H](c3ccc(Br)cc3)C(C(=O)O)=CC[C@H]2c2ccc(Cl)cc2)cc1,57.5%
22,Cc1ccc(S(=O)(=O)N2[C@@H](c3cccc(Br)c3)C(C(=O)O)=CC[C@H]2c2cccc(F)c2)cc1,67.1%
23,Cc1ccc(S(=O)(=O)N2[C@@H](c3cccc(C)c3)C(C(=O)O)=CC[C@H]2c2cccc(F)c2)cc1,60.5%
24,COc1ccc([C@@H]2CC=C(C(=O)O)[C@H](c3ccc(Br)cc3)N2S(=O)(=O)c2ccc(C)cc2)cc1OC,74%
25,COc1ccc([C@@H]2CC=C(C(=O)O)[C@H](c3ccc(C)cc3)N2S(=O)(=O)c2ccc(C)cc2)cc1OC,89.3%
26,COc1ccc([C@@H]2C[C@@H](Sc3ccccc3)[C@H](C(=O)O)CN2S(=O)(=O)c2ccccc2)cc1,103%

row,SMILES,Activity
1,Cc1ccc(S(=O)(=O)N2[C@@H](c3cccc(C)c3)C(C(=O)O)=CC[C@H]2c2ccc(Cl)cc2)cc1,66%
2,CCCCCS[C@@H]1C[C@@H](c2ccc(CC)cc2)N(S(=O)(=O)c2ccc(C)cc2)C[C@H]1C(=O)O,65.8%
3,CCCCCS[C@@H]1C[C@@H](c2ccc(C)cc2)N(S(=O)(=O)c2ccccc2C)C[C@H]1C(=O)O,62.9%
4,COC(=O)c1ccccc1S(=O)(=O)N1[C@@H](c2ccc(Cl)cc2)C(C(=O)O)=CC[C@H]1c1ccc(C)cc1,81.4%
5,COc1cccc([C@@H]2CC=C(C(=O)O)[C@H](c3cccc(Br)c3)N2S(=O)(=O)c2ccc(C)cc2)c1,55.3%
6,COc1ccc([C@@H]2CC=C(C(=O)O)[C@H](c3ccc(Br)cc3)N2S(=O)(=O)c2ccc(Cl)cc2)cc1,76.2%
7,O=C(O)C1=CC[C@@H](c2ccc(Cl)cc2)N(S(=O)(=O)c2ccc(Cl)cc2)[C@H]1c1cccc(F)c1,44.8%
8,CCS[C@@H]1C[C@@H](c2ccc(Cl)cc2)N(S(=O)(=O)c2ccc(C)cc2)C[C@H]1C(=O)O,87.8%
9,COc1cc([C@@H]2C[C@@H](SCC(C)C)[C@H](C(=O)O)CN2S(=O)(=O)c2ccc(C)cc2)cc(OC)c1OC,98.3%
10,COc1ccc([C@@H]2C[C@@H](SC3CCCC3)[C@H](C(=O)O)CN2S(=O)(=O)c2ccccc2)cc1,94.5%
11,COc1ccc([C@@H]2C[C@@H](Sc3ccc(C)cc3)[C@H](C(=O)O)CN2S(=O)(=O)c2ccc(C)cc2)cc1,91.8%
12,CCCCCCS[C@@H]1C[C@@H](c2ccc(OC)cc2)N(S(=O)(=O)c2ccccc2C)C[C@H]1C(=O)O,72.9%
13,Cc1ccc([C@@H]2C[C@@H](SCC(C)C)[C@H](C(=O)O)CN2S(=O)(=O)c2ccc(C)cc2)cc1,83.5%
14,CC(C)(C)c1ccc([C@H]2C(C(=O)O)=CC[C@@H](c3ccc(Cl)cc3)N2S(=O)(=O)c2ccc(Cl)cc2)cc1,110%
15,Cc1ccc([C@@H]2CC=C(C(=O)O)[C@H](c3ccc(Br)cc3)N2S(=O)(=O)c2ccccc2)cc1,78.4%
16,Cc1ccc([C@@H]2C[C@@H](Sc3ccc(Cl)cc3)[C@H](C(=O)O)CN2S(=O)(=O)c2ccc(C)cc2)cc1,57%
17,COc1ccc([C@@H]2CC=C(C(=O)O)[C@H](c3cccc(F)c3)N2S(=O)(=O)c2ccc(C)cc2)cc1,87.5%
18,Cc1ccc([C@@H]2C[C@@H](SCCC(C)C)[C@H](C(=O)O)CN2S(C)(=O)=O)cc1,93.4%
19,CCc1ccc([C@@H]2CC=C(C(=O)O)[C@H](c3ccc(F)cc3)N2S(=O)(=O)c2ccc(C)cc2)cc1,55.2%
20,CCCCCS[C@@H]1C[C@@H](c2ccc(OC)cc2)N(S(=O)(=O)c2ccc(Cl)cc2)C[C@H]1C(=O)O,70.9%
21,C=CCS[C@@H]1C[C@@H](c2cccc(OC)c2)N(S(=O)(=O)c2ccc(C)cc2)C[C@H]1C(=O)O,75.1%
22,COc1ccc([C@@H]2CC=C(C(=O)O)[C@H](c3ccc(C(C)(C)C)cc3)N2S(=O)(=O)c2ccc(C)cc2)cc1OC,90.4%
23,COc1cccc([C@@H]2C[C@@H](SCc3ccccc3)[C@H](C(=O)O)CN2S(=O)(=O)c2ccc(C)cc2)c1,35%
24,CCCCS[C@@H]1C[C@@H](c2ccc(C)cc2)N(S(=O)(=O)c2ccc(Cl)cc2)C[C@H]1C(=O)O,49.2%
25,C=CCS[C@@H]1C[C@@H](c2ccc(OC)c(OC)c2)N(S(=O)(=O)c2ccc(C)cc2)C[C@H]1C(=O)O,109%
26,Cc1ccc(S(=O)(=O)N2[C@@H](c3ccc(F)cc3)C(C(=O)O)=CC[C@H]2c2ccc(C#N)cc2)cc1,65.1%

row,SMILES,Activity
1,CCCCS[C@@H]1C[C@@H](c2ccc(OC)c(OC)c2)N(S(=O)(=O)c2ccc(C)cc2)C[C@H]1C(=O)O,114%
2,Cc1ccc(S(=O)(=O)N2C[C@@H](C(=O)O)[C@H](SCc3ccccc3)C[C@H]2c2ccccc2)cc1,92.1%
3,COc1ccc([C@@H]2C[C@@H](Sc3ccc(Cl)cc3)[C@H](C(=O)O)CN2S(=O)(=O)c2ccc(C)cc2)cc1OC,107%
4,Cc1ccc(S(=O)(=O)N2[C@@H](c3ccc(F)cc3)C(C(=O)O)=CC[C@H]2c2cccc(F)c2)cc1,63.4%
5,COc1ccc(S[C@@H]2C[C@@H](c3ccc(Cl)cc3)N(S(=O)(=O)c3ccc(C)cc3)C[C@H]2C(=O)O)cc1,85.5%
6,Cc1ccc(S(=O)(=O)N2[C@@H](c3ccc(Br)cc3)C(C(=O)O)=CC[C@H]2c2cccc(Br)c2)cc1,57.9%
7,COc1cccc([C@@H]2CC=C(C(=O)O)[C@H](c3cccc(Cl)c3)N2S(=O)(=O)c2ccc(C)cc2)c1,67.1%
8,COc1ccc([C@@H]2C[C@@H](SCC(C)C)[C@H](C(=O)O)CN2S(=O)(=O)c2ccc(C)cc2)cc1OC,91.6%
9,COc1ccc([C@@H]2CC=C(C(C)=O)CN2S(=O)(=O)c2ccccc2)cc1,110%
10,Cc1ccc([C@@H]2C[C@@H](SCCC(C)C)[C@H](C(=O)O)CN2S(=O)(=O)c2ccccc2)cc1,79.3%
11,COc1ccc(S[C@@H]2C[C@@H](c3ccccc3)N(S(=O)(=O)c3ccc(C)cc3)C[C@H]2C(=O)O)cc1,99.1%
12,COc1cccc([C@@H]2CC=C(C(=O)O)[C@H](c3ccc(C)cc3)N2S(=O)(=O)c2ccc(C)cc2)c1,63.1%
13,COc1cccc([C@@H]2C[C@@H](SC3CCCC3)[C@H](C(=O)O)CN2S(=O)(=O)c2ccc(C)cc2)c1,113%
14,COc1cccc([C@@H]2C[C@@H](Sc3ccccc3)[C@H](C(=O)O)CN2S(=O)(=O)c2ccc(C)cc2)c1,86.1%
15,CCCCCCS[C@@H]1C[C@@H](c2ccc(C)cc2)N(S(=O)(=O)c2ccccc2C)C[C@H]1C(=O)O,69.9%
16,Cc1ccc(S(=O)(=O)N2[C@@H](c3cccc(Br)c3)C(C(=O)O)=CC[C@H]2c2ccc(C#N)cc2)cc1,93.5%
17,COc1ccc(S[C@@H]2C[C@@H](c3cccc(OC)c3)N(S(=O)(=O)c3ccc(C)cc3)C[C@H]2C(=O)O)cc1,101%
18,COC(=O)c1ccccc1S(=O)(=O)N1[C@@H](c2cccc(Cl)c2)C(C(=O)O)=CC[C@H]1c1ccc(C)cc1,56.2%
19,CCc1ccc([C@@H]2C[C@@H](SCc3ccc(C(C)(C)C)cc3)[C@H](C(=O)O)CN2S(=O)(=O)c2ccc(C)cc2)cc1,64.4%
20,Cc1ccc(S(=O)(=O)N2[C@@H](c3ccc(Cl)cc3)C(C(=O)O)=CC[C@H]2c2ccccc2)cc1,69.7%
21,CCCCCS[C@@H]1C[C@@H](c2ccc(OC)cc2)N(S(=O)(=O)c2ccccc2)C[C@H]1C(=O)O,94.8%
22,CCc1ccc([C@@H]2C=CCCN2S(=O)(=O)c2ccc(C)cc2)cc1,99.5%
23,CCc1ccc([C@@H]2C[C@@H](Sc3ccc(OC)cc3)[C@H](C(=O)O)CN2S(=O)(=O)c2ccc(C)cc2)cc1,90.8%
24,CS(=O)(=O)N1[C@@H](c2ccc(F)cc2)C(C(=O)O)=CC[C@H]1c1ccc(Cl)cc1,50.2%
25,CC(=O)C1=CC[C@@H](c2ccc(C)cc2)N(S(=O)(=O)c2ccccc2[N+](=O)[O-])C1,110%
